Reference: US10231954B2, “Neurodegenerative therapies” (LYTIX BIOPHARMA AS, priority 2014, dated 2019)

Legend:
Assay type in all cases: biochemical
Conditions in all cases: 100 micromolar inhibitor concentration; 100 is no change
MKK1 = MKK1 (Homo sapiens, UniProt Q02750); test: Kinase profiling MKK1
From the text: (§1) Any value less that 25 is considered to be highly significant inhibition.

p38a MAPK = p38a MAPK (Homo sapiens, UniProt Q16539); test: Kinase profiling p38a MAPK
From the text: as §1

PKA = PKA (Homo sapiens, UniProt P17612); test: Kinase profiling PKA
From the text: as §1

ROCK 2 = ROCK 2 (Homo sapiens, UniProt O75116); test: Kinase profiling ROCK 2
ROCK 2, sequence (O75116 whole entry, species assumed): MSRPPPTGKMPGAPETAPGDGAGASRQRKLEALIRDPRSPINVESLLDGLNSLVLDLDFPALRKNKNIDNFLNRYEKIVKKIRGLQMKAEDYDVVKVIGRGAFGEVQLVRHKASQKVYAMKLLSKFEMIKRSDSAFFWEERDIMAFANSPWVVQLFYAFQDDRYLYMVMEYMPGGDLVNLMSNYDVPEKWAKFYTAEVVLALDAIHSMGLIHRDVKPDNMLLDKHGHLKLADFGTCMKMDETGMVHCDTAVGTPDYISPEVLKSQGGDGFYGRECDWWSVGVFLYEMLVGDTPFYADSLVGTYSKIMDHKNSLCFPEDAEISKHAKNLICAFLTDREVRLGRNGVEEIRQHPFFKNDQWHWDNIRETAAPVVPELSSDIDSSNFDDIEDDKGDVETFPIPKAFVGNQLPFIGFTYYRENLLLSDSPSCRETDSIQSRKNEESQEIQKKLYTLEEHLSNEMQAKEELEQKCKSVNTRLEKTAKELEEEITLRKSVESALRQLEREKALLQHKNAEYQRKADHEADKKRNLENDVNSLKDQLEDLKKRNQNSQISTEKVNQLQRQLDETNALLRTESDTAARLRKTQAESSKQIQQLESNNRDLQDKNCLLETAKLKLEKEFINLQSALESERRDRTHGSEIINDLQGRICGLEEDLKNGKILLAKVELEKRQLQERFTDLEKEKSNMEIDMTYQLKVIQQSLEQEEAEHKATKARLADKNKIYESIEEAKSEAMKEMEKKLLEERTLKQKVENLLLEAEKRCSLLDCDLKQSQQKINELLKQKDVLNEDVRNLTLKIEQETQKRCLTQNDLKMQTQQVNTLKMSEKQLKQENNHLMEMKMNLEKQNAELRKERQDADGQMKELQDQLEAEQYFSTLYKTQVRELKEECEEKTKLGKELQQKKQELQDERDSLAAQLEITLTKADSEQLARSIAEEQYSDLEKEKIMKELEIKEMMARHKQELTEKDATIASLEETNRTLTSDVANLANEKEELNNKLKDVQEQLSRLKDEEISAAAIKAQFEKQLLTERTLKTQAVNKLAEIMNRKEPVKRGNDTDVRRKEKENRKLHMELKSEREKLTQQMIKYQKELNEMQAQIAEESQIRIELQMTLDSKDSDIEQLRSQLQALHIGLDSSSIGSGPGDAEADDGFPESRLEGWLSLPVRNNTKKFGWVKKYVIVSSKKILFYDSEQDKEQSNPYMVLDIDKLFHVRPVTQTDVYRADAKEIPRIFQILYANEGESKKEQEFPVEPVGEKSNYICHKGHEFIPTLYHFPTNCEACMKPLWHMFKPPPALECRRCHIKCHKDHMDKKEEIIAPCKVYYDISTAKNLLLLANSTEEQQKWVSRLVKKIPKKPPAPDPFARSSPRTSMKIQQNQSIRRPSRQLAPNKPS
From the text: as §1

PRK2 = PRK2 (Homo sapiens, UniProt Q16513); test: Kinase profiling PRK2
From the text: as §1

PKCa = PKCa (Homo sapiens, UniProt P17252); test: Kinase profiling PKCa
From the text: as §1

CAMKKb = CAMKKb (Homo sapiens, UniProt Q96RR4); test: Kinase profiling CAMKKb
From the text: as §1

SmMLCK = SmMLCK (Homo sapiens, UniProt Q15746); test: Kinase profiling SmMLCK
MARK3 = MARK3 (Homo sapiens, UniProt P27448); test: Kinase profiling MARK3
From the text: as §1

TBK1 = molecular target: T1, TBK1 (Homo sapiens, UniProt Q9UHD2); test: Kinase profiling TBK1
T1 sequence (Q9UHD2 1-729): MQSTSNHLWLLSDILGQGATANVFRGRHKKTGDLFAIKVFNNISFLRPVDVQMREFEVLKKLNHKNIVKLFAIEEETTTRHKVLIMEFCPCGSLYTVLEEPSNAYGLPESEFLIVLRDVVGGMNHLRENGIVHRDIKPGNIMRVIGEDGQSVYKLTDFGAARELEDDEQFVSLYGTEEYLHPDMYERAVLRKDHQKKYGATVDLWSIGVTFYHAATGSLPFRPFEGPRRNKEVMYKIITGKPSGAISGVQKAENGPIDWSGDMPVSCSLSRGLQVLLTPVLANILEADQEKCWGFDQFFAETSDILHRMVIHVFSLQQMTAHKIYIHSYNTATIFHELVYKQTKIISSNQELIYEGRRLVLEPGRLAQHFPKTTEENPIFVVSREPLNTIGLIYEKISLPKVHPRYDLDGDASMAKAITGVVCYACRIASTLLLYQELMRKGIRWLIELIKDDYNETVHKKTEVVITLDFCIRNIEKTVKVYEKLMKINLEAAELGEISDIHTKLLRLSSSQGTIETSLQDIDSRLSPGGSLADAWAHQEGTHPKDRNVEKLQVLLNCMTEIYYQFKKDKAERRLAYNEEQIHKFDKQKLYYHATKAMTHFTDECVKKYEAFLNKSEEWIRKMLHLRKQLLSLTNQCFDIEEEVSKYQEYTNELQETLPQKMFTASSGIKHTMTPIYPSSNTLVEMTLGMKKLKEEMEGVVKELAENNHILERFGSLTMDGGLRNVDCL
From the text: as §1

PAK4 = PAK4 (Homo sapiens, UniProt O96013); test: Kinase profiling PAK4
PAK4, sequence (O96013 whole entry, species assumed): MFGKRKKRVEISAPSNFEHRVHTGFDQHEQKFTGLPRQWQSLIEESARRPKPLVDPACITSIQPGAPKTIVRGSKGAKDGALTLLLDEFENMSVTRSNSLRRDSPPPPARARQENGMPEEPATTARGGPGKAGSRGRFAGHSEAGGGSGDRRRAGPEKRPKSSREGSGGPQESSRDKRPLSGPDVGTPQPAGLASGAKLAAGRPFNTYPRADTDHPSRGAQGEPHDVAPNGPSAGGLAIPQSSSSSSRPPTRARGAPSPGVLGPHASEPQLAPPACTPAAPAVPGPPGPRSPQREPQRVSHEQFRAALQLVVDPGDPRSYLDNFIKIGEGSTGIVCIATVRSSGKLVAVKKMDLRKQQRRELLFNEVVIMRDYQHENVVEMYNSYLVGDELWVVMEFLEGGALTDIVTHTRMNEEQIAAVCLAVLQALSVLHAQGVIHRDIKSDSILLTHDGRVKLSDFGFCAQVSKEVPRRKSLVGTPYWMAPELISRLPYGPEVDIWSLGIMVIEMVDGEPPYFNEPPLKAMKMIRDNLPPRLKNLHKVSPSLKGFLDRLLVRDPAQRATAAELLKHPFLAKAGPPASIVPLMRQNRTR
From the text: as §1

Src = Src (Homo sapiens, UniProt P12931); test: Kinase profiling Src
From the text: as §1

Lck = Lck (Homo sapiens, UniProt P06239); test: Kinase profiling Lck
Lck, sequence (P06239 whole entry, species assumed): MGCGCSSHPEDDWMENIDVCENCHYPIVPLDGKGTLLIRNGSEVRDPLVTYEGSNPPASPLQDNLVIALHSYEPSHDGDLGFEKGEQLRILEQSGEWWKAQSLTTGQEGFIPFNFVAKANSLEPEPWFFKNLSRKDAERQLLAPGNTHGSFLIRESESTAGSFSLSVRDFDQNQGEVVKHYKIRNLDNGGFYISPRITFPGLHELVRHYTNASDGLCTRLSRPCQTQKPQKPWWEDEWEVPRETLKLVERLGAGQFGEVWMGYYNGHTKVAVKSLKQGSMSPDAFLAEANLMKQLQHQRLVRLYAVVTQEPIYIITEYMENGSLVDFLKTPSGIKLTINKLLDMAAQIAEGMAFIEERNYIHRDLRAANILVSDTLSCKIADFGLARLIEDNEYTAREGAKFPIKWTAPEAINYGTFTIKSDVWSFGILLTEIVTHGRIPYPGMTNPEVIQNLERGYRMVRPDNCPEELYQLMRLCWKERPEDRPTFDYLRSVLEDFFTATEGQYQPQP
From the text: as §1

SYK = SYK (Homo sapiens, UniProt P43405); test: Kinase profiling SYK
From the text: as §1

IGF-1R = IGF-1R (Homo sapiens, UniProt P08069); test: Kinase profiling IGF-1R
IGF-1R, sequence (P08069 31-1367, species assumed): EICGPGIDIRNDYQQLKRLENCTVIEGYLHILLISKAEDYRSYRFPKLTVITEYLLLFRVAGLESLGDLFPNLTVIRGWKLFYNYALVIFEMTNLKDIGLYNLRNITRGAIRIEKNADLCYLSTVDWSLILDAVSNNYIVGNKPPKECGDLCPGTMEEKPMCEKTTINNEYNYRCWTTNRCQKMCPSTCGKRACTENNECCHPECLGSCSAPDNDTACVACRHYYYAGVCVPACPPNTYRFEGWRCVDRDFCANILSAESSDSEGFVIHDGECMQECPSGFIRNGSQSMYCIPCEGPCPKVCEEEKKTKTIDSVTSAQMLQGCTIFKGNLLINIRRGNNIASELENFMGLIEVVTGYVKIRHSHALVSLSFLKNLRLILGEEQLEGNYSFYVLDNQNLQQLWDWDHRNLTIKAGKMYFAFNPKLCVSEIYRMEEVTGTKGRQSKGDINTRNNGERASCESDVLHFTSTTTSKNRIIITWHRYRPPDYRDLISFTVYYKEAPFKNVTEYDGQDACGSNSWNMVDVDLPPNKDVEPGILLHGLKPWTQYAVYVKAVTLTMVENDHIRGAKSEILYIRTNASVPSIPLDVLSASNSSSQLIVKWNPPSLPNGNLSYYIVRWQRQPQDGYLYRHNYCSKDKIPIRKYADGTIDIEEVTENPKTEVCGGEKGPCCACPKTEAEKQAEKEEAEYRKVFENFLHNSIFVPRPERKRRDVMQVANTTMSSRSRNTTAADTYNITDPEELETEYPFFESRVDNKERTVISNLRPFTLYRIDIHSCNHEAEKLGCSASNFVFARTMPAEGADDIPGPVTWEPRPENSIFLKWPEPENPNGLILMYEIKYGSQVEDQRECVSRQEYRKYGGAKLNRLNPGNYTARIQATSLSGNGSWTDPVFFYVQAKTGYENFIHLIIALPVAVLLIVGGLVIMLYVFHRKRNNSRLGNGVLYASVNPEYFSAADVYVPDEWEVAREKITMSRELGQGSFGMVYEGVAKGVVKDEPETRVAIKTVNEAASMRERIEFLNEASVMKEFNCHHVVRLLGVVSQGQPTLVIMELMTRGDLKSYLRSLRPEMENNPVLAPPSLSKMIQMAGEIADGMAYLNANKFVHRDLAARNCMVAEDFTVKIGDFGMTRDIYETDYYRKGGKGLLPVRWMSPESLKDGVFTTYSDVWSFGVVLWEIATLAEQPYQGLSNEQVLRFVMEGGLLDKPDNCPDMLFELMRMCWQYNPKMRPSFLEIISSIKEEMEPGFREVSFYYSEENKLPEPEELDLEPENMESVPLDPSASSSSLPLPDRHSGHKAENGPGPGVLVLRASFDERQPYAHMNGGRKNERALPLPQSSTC
From the text: as §1

VEG-FR = test: Kinase profiling VEG-FR
From the text: as §1

p38a MAPK, sequence (Q16539 whole entry): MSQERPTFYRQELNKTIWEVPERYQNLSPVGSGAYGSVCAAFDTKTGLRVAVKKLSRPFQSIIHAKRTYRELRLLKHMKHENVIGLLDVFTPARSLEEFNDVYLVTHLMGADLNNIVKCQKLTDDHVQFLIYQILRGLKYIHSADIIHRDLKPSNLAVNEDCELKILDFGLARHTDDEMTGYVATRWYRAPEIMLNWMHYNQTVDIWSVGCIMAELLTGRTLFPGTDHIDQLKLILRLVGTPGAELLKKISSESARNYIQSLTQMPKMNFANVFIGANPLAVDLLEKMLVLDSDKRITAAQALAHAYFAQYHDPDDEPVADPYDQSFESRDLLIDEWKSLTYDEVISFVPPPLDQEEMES
MKK1, sequence (Q02750 whole entry, species assumed): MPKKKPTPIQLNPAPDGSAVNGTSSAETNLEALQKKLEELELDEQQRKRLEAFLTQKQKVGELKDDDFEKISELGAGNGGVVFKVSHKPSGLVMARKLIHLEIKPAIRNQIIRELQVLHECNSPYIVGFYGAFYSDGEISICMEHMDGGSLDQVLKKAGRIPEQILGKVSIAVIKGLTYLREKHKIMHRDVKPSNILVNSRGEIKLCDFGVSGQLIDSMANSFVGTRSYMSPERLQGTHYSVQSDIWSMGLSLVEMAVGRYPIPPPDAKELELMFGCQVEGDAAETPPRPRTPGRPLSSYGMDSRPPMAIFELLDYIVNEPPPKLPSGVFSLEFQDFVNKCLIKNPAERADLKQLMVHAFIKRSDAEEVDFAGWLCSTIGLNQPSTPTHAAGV

| SMILES | residual kinase activity, MKK1 (MKK1) | residual kinase activity, p38a MAPK (p38a MAPK) | residual kinase activity, PKA (PKA) | residual kinase activity, ROCK 2 (ROCK 2) | residual kinase activity, PRK2 (PRK2) | residual kinase activity, PKCa (PKCa) | residual kinase activity, CAMKKb (CAMKKb) | residual kinase activity, SmMLCK (SmMLCK) | residual kinase activity, MARK3 (MARK3) | residual kinase activity, TBK1 (TBK1) | residual kinase activity, PAK4 (PAK4) | residual kinase activity, Src (Src) | residual kinase activity, Lck (Lck) | residual kinase activity, SYK (SYK) | residual kinase activity, IGF-1R (IGF-1R) | residual kinase activity, VEG-FR (VEG-FR) |
| --- | --- | --- | --- | --- | --- | --- | --- | --- | --- | --- | --- | --- | --- | --- | --- | --- |
| O=C(Nc1nc2ccc(F)cc2s1)c1ccccc1 [Compound 03-92] | 93 | 114 | 96 | 95 | 95 | 96 | 80 | 68 | 109 | 92 | 111 | 74 | 102 | 117 | 88 | 53 |
| CC(=O)Nc1nc2ccc(F)cc2s1 [Compound 03-94] | 76 | 84 | 93 | 70 | 80 | 98 | 67 | 67 | 96 | 91 | 66 | 76 | 92 | 96 | 92 | 18 |
| COc1ccc2sc(NC(=O)c3ccccc3)nc2c1 [Compound 03-95] | 92 | 82 | 83 | 54 | 84 | 53 | 54 | 48 | 106 | 100 | 107 | 77 | 93 | 83 | 100 | 65 |
| COc1ccc2nc(NC(=O)c3ccccc3)sc2c1 [Compound 03-98] | 105 | 86 | 90 | 66 | 91 | 89 | 45 | 75 | 72 | 95 | 37 | 172 | 93 | 109 | 104 | 37 |
| O=C(Nc1nc2ccc(C(F)(F)F)cc2s1)c1ccccc1 [Compound 03-99] | 87 | 86 | 96 | 97 | 85 | 114 | 86 | 89 | 106 | 96 | 154 | 87 | 92 | 120 | 85 | 28 |
